One series has as its system HEF cells. The experiment in a line: Senescent cell killing activity test, HEF cell model (CCK-8). The conditions noted are these: higher concentration (25 µM). The format is cell-based, human. As to the method: To avoid replication of the induced senescent cells, low-passage proliferating HEF cells (<10 passages), MRC5 cells (<6 passages), and BJ cells (<10 passages) were used as normal controls. For chemical drug induced senescence, HEF cells were treated with 10 µM etoposide (Selleck, S1225) for 36-48 hours, MRC5 cells were treated with 5 µM bleomycin (Selleck, S1225) for 72 hours, and BJ cells were treated with 10 µg/mL bleomycin for 72 hours. Three days after the treatment, the cells were subcultured in fresh culture medium at a 1:3 ratio for 72 hours before further analysis and use.
Non-senescent and induced-senescent HEF cells, non-senescent and induced-senescent MRC5 cells, and non-senescent and induced-senescent BJ cells were respectively digested with trypsin, and centrifuged at 1000 rpm for 5 minutes. Then, the supernatant was removed, and the cells were resuspended in fresh DMEM culture medium containing 10% fetal bovine serum for counting. The cell density was adjusted so that the non-senescent cell density was 4000 cells/100 µL and the senescent cell density was 7000 cells/100 µL. 100 µL of the cell suspension was added to each well of a 96-well transparent cell culture plate. It was noted that the edge wells of the 96-well plate were not used as testing wells, and 300 µL of PBS alone was added to these wells to reduce evaporation of the culture medium. The 96-well plates with the well-plated cells were placed back in a 37°C incubator for overnight culture until the cells adhered. On the next day, the small molecule compounds to be tested were prepared and added after the cells had adhered.
A series of small molecule concentration gradients (0.01, 0.03, 0.1, 0.3, 1, 3, 10, and 25 µM) were pre-set, and a series of 2× drug dilutions for the above concentrations were prepared in DMEM culture medium containing 10% fetal bovine serum. 100 µL of the above DMEM culture medium containing the gradient concentrations of the drug was added to each well of the 96-well plate that had been well-plated with cells, so that the final drug concentration in each well was the pre-set series of concentrations. Three replicate wells were used for each test drug concentration. The 96-well plates were placed back in a 37°C incubator, and cell viability was measured after three days.
Three days after adding the drug, the plates were taken out, and the supernatant was discarded. 100 µL of pre-prepared CCK-8 working solution was added to each well. The CCK-8 working solution was obtained through diluting a CCK-8 stock solution (C0041, Beyotime) with a serum-free DMEM culture medium by 10-fold volumn. The 96-well plates containing the CCK-8 working solution were placed back in the 37°C incubator and incubated for 0.5-2 hours. The plates were then taken out, and the absorbance value (OD value) of each well was measured at a wavelength of 450 nm. The cell viability in each experimental group was calculated according to the following formula: Relative cell viability (%) = (Blank control group - Experimental group) / Blank control group × 100%.

A short description of series [1]: Metabolic stability assay in liver microsomes (human). In kind it is in vitro ADME. How it is done:
(§1) The metabolic reaction of compounds in liver microsome was performed in a system with a total volume of 400 µL, and the following steps below were sequentially performed for the reaction and detection: 1) 200 µL of phosphate buffer (200 mM), 106 µL of sterile ultrapure water, and 40 µL of magnesium chloride solution (50 mM) were added to each detection tube to prepare a reaction working solution. 2) Two reaction systems with or without adding NADPH were prepared for each compound to be tested. For the reaction system with adding NADPH: 10 µL of liver microsomes (20 mg/mL) and 40 µL of NADPH (10 mM) were added to the above working solution; for the reaction system without adding NADPH: 10 µL of liver microsomes (20 mg/mL) and 40 µL of sterile ultrapure water were added to the above working solution. The final concentration of liver microsomes in both reaction systems was 0.5 mg/mL. 3) 4 µL of the compound to be tested ([…]) was added to each reaction tube, resulting in a final concentration of 1 µM for the compound in the reaction system. The detection tubes were placed at 37°C for reaction. 4) 50 µL samples were taken from each detection tube at 0, 15, 30, 45, and 60 minutes after adding the compound. The reaction was terminated by adding cold acetonitrile containing IS (100 nM alprazolam, 200 nM labetalol, 200 nM caffeine, and 2 µM ketoprofen) in a 4× volume. The samples were centrifuged at 3220 g for 40 minutes, 100 µL of the supernatant was mixed with 100 µL of ultrapure water, and a sample was taken for LC-MS/MS analysis.
(§2) Calculation of in vitro liver microsomal metabolic half-life and in vitro metabolic intrinsic clearance rate: The LC-MS detection results were analyzed to obtain the percentage of the remaining amount of the tested compound relative to the initial amount at each time point. The natural logarithm of the remaining percentage was linearly fitted against the incubation time.
On the technique in general: Liver microsomes are a subcellular fraction often used to study metabolism.

The next series has as its system Molt-4 cells. The experiment in a line: Molt-4 cell killing activity test (CCK-8). In kind it is cell-based. In outline:
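Molt-4 cells in RPMI-1640 with 10% FBS were exposed to compounds at 0.001–3 µM final, triplicate wells, for three days at 37°C. Viability was read by CCK-8 absorbance at 450 nm after 0.5–2 h, expressed relative to blank control.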

The test system of the next series is platelets. Description: In vivo platelet toxicity test in mice. The conditions noted are these: intraperitoneal.
The nature of series [2]: Metabolic stability assay in liver microsomes (mouse). The format is in vitro ADME. How it is done: as §1, §2
Setting [3] is: human liver microsomes 0.5 mg/mL, 1 µM compound, 37°C.
The mark [4] stands for this setting: mouse liver microsomes 0.5 mg/mL, 1 µM compound, 37°C.

Method for platelets: The in vivo platelet toxicity test was performed by using 5-6 week old female C57BL/6J mice. The C57BL/6J mice were purchased from Beijing Vital River Laboratory Animal Technology Co., Ltd. and housed under specific pathogen-free (SPF) conditions, with a 12-hour light/12-hour dark cycle, and free access to food and water. […] Different doses of the molecules to be tested (e.g., 0.1, 0.5, 2.5 mg/kg or 2, 5, 20 mg/kg) were prepared in advance with the aforementioned vehicle, and administered to mice via intraperitoneal injection at a volume of 200 µL for each mouse. After administration was completed, approximately 50 µL of blood was collected from each mouse at different time points via the intra-canthus sampling method into EDTA anticoagulant tubes (RAM Scientific), then a routine analysis of blood was performed by using a hematology analyzer, and the platelets was counted.

As to `Cc1c(-c2ccc(N3CCc4cccc(C(=O)Nc5nc6ccccc6s5)c4C3)nc2C(=O)O)cnn1CC12CC3CC(CC(C3)C1)C2` [Compound A-1331852, A-1331852, reference compound], the “toxicity on normal non-senescent HEF cells” value in the series on HEF cells was “toxic killing effects on normal non-senescent HEF cells”. Also, the “clearance rate (metabolic clearance rate)” value was found to be 53.07 µL/min/mg in series [1] (human liver microsomes) and 18.43 µL/min/mg in series [2] (mouse liver microsomes). Also, the Clint is given as 53.07 µL/min/mg protein in series [1] (setting [3]) and 18.43 µL/min/mg protein in series [2] (setting [4]). For the same compound, the results for the T1/2 in series [1] (setting [3]) and in series [2] (setting [4]) were 26.12 min and 75.21 min, respectively. The “killing Molt-4 cells at different concentrations (Figure 1), in words” value in the series with Molt-4 cells (Figure 1, 0.001-3 µM, comparison with control molecules) is on record as “highest cellular activity in the test”. Further, in the series with Molt-4 cells (Homo sapiens, 72 h, Molt-4 cells, three days, CCK-8, read-out: EC50 (Molt-4)), the EC50 (commonly the concentration needed to bring the measured effect to its halfway point) is under 10 nM. Besides, in the series with platelets (0.5 mg/kg, Figure 5A), the toxicity on platelets entry is reported as “severe toxicity on platelets”. For the same compound, the “platelet number in peripheral blood” value in the series with platelets (5 mg/kg, Figure 5B) is “below 100 × 10^9/L”.
